Measurements as given in ChEMBL document CHEMBL5465560, “Selectivity Literature for EUbOPEN Chemogenomic Library” (2024).
One block for each molecule: values may come before it.

Tests used:
[1] = biological target: Tyrosine-protein kinase ITK/TSK (Homo sapiens, UniProt Q08881); assay: Selectivity interaction (Kinase counterscreening (biochemical assay)) EUB0000604a ITK
[2] = biological target: T1, Dual specificity mitogen-activated protein kinase kinase 4 (Homo sapiens) (UniProt P45985); assay: Selectivity interaction (KinomeScan (DiscoverX)) EUB0001049a MAP2K4; conditions: at 1 µM
T1 sequence (whole entry): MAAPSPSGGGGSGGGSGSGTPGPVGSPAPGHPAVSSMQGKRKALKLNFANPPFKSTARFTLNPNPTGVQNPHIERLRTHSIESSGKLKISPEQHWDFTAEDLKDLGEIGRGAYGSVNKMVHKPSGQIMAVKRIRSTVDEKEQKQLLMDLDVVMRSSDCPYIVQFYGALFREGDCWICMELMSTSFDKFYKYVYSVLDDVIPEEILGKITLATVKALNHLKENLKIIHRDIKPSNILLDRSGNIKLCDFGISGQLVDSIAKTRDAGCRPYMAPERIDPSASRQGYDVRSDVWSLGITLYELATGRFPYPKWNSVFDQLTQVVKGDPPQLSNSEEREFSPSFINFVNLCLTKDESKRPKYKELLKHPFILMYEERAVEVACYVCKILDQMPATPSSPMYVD

[3] = biological target: SRSF protein kinase 2 (Homo sapiens) (UniProt P78362); assay: Selectivity interaction (ActivX KiNativ screen (kinase selectivity in THP-1 cell lysates)) EUB0000639a SRPK2; assay type: subcellular; conditions: lysate
[4] = biological target: Dual specificity mitogen-activated protein kinase kinase 2 (Homo sapiens) (UniProt P36507); assay: Selectivity interaction (ActivX KiNativ screen (kinase selectivity in THP-1 cell lysates)) EUB0000639a MAP2K2; assay type: subcellular; conditions: lysate, at 0.2 µM
[5] = biological target: Calcium/calmodulin-dependent protein kinase type II subunit delta (Homo sapiens) (UniProt Q13557); conditions: at 10 µM
[6] = biological target: SRSF protein kinase 1 (Homo sapiens, UniProt Q96SB4); assay: Selectivity interaction (ProQinase) EUB0000171b SRPK1
[7] = biological target: Serine/threonine-protein kinase PAK 4 (Homo sapiens, UniProt O96013); assay: Selectivity interaction (Upstate Kinase Profiler service (Millipore)) EUB0000056c PAK4; conditions: at 1 µM
[8] = biological target: T2, Mitogen-activated protein kinase kinase kinase 19 (Homo sapiens) (UniProt Q56UN5); assay: Selectivity interaction (KinomeScan (DiscoverX)) EUB0000045b MAP3K19
T2 sequence (whole entry): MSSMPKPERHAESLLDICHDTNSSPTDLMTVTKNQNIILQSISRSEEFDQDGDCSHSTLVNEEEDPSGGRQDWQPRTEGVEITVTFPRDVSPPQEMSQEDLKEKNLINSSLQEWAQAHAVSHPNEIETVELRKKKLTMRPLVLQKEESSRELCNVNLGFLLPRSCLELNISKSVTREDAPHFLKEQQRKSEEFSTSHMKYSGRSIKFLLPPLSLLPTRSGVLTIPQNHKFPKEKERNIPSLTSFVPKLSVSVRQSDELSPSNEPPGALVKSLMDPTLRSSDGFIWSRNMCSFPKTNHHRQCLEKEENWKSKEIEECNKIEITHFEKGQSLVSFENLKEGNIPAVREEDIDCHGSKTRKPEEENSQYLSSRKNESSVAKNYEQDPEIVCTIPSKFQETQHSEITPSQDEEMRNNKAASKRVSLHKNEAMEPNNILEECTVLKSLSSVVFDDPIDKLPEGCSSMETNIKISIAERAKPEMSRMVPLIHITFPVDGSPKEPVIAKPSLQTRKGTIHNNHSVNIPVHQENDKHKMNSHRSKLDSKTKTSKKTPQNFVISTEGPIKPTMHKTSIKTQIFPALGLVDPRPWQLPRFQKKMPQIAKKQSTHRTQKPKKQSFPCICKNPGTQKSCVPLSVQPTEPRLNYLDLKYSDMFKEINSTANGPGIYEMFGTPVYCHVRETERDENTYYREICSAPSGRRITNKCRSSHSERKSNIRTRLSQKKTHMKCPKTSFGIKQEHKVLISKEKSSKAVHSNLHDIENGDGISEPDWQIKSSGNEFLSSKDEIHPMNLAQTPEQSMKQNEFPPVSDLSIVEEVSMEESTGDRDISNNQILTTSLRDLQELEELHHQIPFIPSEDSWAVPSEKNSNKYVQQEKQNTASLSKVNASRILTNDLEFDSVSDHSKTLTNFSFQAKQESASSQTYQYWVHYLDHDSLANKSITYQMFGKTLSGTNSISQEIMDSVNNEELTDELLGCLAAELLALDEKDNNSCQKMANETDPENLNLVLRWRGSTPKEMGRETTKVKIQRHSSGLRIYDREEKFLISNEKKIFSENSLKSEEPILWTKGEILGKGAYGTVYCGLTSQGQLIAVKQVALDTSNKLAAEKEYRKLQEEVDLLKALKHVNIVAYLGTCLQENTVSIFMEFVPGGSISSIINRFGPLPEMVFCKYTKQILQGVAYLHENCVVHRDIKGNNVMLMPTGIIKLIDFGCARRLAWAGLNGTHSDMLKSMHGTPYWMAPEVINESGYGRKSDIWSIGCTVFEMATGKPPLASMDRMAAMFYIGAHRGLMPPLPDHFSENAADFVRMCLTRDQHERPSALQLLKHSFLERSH

[9] = biological target: Tyrosine-protein kinase receptor Tie-1 (Homo sapiens) (UniProt P35590); assay: Selectivity interaction (KinomeScan (DiscoverX)) EUB0000618a TIE1; conditions: at 10 µM
[10] = biological target: Calcium/calmodulin-dependent protein kinase type 1D (Homo sapiens) (UniProt Q8IU85); assay: Selectivity interaction (KinomeScan (DiscoverX)) EUB0000618a CAMK1D; conditions: at 10 µM
Calcium/calmodulin-dependent protein kinase type 1D (Homo sapiens), sequence (Q8IU85 whole entry, looked up): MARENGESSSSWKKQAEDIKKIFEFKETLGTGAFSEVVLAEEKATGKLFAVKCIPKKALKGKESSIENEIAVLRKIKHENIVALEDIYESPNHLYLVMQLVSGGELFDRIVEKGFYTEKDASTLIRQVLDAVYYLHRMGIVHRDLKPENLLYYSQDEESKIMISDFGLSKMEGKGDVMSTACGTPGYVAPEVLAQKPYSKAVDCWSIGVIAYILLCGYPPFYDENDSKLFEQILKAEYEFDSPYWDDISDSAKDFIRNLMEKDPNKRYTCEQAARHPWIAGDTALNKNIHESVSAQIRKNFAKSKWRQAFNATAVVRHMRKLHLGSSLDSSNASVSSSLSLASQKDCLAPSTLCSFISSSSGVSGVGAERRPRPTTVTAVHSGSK

SRSF protein kinase 2 (Homo sapiens), sequence (P78362 whole entry, looked up): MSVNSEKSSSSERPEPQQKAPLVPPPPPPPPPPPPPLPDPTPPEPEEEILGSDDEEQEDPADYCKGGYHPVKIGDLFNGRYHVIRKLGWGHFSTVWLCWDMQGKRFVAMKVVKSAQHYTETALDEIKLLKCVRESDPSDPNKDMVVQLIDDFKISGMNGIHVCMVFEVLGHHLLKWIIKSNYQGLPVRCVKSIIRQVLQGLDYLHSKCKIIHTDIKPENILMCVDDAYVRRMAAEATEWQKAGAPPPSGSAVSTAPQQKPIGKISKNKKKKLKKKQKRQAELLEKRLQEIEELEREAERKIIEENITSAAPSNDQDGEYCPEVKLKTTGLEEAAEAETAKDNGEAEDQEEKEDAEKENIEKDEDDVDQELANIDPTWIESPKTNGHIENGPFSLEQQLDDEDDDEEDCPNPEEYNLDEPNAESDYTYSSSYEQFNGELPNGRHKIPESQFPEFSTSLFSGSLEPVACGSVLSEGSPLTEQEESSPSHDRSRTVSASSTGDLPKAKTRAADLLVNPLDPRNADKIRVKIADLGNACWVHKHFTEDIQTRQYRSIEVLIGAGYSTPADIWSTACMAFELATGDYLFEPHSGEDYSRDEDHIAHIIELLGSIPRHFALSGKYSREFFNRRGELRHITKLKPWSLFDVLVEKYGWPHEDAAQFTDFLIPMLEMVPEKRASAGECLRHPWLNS
SRSF protein kinase 1, sequence (Q96SB4 whole entry): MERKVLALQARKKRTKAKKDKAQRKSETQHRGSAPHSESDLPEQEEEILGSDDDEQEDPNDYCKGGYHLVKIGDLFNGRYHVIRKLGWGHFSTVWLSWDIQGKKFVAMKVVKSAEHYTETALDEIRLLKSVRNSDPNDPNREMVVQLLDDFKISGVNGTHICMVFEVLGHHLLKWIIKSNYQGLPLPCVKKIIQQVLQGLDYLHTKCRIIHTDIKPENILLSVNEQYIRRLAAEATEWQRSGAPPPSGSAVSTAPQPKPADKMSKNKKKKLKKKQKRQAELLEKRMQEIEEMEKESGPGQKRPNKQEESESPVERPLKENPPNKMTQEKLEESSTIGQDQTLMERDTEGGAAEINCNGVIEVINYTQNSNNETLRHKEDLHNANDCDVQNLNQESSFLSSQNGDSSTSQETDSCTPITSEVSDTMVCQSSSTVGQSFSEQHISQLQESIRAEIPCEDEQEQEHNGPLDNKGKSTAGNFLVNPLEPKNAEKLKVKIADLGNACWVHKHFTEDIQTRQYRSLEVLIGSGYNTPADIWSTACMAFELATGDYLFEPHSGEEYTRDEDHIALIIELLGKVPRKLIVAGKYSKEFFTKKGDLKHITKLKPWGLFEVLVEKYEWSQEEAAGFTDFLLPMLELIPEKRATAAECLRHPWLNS
Dual specificity mitogen-activated protein kinase kinase 2 (Homo sapiens), sequence (P36507 whole entry): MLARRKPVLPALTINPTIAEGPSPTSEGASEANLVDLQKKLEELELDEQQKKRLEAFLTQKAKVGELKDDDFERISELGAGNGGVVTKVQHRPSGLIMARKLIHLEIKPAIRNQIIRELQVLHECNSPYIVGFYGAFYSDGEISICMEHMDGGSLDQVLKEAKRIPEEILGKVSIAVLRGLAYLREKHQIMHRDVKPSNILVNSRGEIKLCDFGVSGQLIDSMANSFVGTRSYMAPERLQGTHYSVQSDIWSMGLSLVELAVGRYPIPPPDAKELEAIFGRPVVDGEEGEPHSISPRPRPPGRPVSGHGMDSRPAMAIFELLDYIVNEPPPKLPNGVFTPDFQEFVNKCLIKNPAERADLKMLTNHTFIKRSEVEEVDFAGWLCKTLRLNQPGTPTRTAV
Calcium/calmodulin-dependent protein kinase type II subunit delta (Homo sapiens), sequence (Q13557 whole entry): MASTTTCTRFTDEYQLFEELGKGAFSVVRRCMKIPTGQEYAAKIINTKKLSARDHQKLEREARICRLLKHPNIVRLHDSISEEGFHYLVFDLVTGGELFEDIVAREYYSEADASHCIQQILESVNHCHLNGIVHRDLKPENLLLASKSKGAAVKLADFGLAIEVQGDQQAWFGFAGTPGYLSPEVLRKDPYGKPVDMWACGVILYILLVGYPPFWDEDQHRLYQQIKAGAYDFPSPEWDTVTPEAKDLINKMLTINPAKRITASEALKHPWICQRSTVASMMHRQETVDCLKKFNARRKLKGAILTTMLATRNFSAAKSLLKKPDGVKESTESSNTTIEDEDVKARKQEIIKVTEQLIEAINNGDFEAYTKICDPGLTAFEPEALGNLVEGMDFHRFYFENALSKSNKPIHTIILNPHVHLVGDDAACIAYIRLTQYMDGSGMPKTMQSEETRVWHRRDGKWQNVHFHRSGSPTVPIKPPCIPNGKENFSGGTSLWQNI
Tyrosine-protein kinase receptor Tie-1 (Homo sapiens), sequence (P35590 whole entry): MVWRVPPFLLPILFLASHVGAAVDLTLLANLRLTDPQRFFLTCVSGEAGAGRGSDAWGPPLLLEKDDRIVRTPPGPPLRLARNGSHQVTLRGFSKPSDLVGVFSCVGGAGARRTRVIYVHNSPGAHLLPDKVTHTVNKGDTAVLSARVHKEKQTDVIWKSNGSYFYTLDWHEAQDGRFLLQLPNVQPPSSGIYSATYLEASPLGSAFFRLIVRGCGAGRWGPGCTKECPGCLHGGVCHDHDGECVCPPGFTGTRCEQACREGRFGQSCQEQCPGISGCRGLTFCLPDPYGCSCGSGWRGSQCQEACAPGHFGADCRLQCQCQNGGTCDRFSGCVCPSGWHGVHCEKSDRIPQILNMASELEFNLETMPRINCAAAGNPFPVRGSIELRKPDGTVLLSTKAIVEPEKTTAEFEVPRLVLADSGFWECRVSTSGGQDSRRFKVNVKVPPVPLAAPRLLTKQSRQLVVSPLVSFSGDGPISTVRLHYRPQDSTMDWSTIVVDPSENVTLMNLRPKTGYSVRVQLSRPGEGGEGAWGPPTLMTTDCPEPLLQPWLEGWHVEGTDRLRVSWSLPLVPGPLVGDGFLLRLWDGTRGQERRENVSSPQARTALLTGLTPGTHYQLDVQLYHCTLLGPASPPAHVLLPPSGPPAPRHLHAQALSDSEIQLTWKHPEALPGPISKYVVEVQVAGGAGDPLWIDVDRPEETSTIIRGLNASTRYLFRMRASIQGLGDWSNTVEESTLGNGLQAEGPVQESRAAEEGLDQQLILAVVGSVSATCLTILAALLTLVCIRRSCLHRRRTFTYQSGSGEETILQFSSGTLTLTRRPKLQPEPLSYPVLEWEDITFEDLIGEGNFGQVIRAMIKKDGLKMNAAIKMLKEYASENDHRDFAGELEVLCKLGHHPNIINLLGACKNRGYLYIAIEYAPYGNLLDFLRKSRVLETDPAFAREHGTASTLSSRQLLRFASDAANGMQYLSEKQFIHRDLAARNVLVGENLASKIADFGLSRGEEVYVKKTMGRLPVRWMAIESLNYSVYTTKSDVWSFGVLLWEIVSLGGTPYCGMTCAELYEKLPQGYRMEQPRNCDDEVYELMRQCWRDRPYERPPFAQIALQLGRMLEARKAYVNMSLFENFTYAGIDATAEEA
Serine/threonine-protein kinase PAK 4, sequence (O96013 whole entry, looked up): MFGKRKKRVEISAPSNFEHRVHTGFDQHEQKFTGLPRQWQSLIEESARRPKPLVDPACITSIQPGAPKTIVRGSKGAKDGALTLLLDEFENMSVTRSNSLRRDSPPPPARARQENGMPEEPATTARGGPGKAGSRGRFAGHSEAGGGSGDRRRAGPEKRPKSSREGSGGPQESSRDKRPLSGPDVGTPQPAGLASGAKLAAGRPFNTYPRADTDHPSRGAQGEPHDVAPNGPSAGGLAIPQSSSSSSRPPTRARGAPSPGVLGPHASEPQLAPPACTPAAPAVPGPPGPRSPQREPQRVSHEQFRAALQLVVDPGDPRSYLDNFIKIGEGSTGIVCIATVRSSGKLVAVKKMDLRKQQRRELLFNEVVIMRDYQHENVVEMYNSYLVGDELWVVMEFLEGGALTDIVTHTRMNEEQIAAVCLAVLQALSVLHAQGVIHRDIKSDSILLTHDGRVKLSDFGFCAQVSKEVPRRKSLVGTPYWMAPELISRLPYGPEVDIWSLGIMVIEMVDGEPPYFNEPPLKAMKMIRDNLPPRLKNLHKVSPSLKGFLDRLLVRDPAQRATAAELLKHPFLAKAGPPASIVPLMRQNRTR
Tyrosine-protein kinase ITK/TSK, sequence (Q08881 whole entry): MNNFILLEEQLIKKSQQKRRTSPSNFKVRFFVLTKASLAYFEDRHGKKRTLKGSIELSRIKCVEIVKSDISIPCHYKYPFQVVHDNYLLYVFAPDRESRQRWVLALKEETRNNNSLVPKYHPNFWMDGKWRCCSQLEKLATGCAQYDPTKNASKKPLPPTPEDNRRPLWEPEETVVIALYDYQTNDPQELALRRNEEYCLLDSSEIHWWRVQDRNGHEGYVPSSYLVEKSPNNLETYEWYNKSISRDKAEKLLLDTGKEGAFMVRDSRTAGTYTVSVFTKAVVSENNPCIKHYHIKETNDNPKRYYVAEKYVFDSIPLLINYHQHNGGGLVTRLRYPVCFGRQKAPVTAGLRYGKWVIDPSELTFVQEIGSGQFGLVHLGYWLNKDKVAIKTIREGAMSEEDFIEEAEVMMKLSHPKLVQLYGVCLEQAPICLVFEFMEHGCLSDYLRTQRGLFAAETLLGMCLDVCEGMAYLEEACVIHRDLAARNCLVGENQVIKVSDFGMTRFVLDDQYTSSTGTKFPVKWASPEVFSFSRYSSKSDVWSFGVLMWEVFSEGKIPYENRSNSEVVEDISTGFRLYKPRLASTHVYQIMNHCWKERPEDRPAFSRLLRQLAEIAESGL

Compound: Cc1cnc(Nc2ccc(F)cc2Cl)nc1-c1c[nH]c(C(=O)N[C@H](CO)c2cccc(Cl)c2)c1
- Ki [1]: > 4 µM

Compound: COc1cc(Nc2nc(C)cc(-c3cnn4nc(OC)ccc34)n2)cc(C(F)(F)F)c1
- % of control [2]: 74%

Compound: C=CC(=O)Nc1cc(-n2c(=O)ccc3cnc4ccc(-c5ccc(NS(C)(=O)=O)cc5)cc4c32)ccc1C
- % of control ([8]; at 1 µM): 100%
- % of control ([8]; at 10 µM): 65%

Compound: O[C@H]1CC[C@H](Nc2ncc3nc(Nc4c(F)cc(F)cc4F)n([C@H]4CCOC4)c3n2)CC1
- % of control [9]: 100%
- % of control [10]: 93%

Second part, the molecule after the results:

- % of inhibition ([3]; at 0.01 µM): 6.9%
- % of inhibition ([3]; at 0.04 µM): -23%
- % of inhibition ([3]; at 0.2 µM): -5.5%
- % of inhibition ([3]; at 1 µM): 11.7%
- % of inhibition ([3]; at 5 µM): 19.9%
- % of inhibition [4]: 11.6%
Compound: CC[C@@H]1[C@H](F)C(=O)N[C@@H]1COc1nccc2cc(C(N)=O)c(OC)cc12 [ZIMLOVISERTIB]

- % of control [5]: 100%
Compound: CCN(CC)CCCCNc1ncc2cc(-c3cc(OC)cc(OC)c3)c(NC(=O)NC(C)(C)C)nc2n1

- % of control ([6]; at 1 µM): 99%
- % of control ([6]; at 5 µM): 86%
Compound: C=CC(=O)Nc1cccc(C(=O)Nc2ccc(Nc3cc(-c4[nH]c(SC)nc4C)ccn3)cc2)c1

- % of inhibition [7]: 3%
Compound: Cc1ccc(-c2ccc3c(ccc4sc5c(c43)NC[C@@H](C)NC5=O)n2)cn1
